Data on 1 cell line can be found in the supplement of paper PMC10307832.

Holding throughout (assay): relative viability (nuclei count vs DMSO), 5 days (fraction); higher = more cells survive
Compound in one assay: CC(C)CCN1c2nc(Nc3cc(F)c(O)c(F)c3)ncc2N(C)C(=O)C1C [BI-D1870]
In short, it runs like this: (§1)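 Vehicle-anchored 1536-well plates of lung cancer cell lines, held overnight at 37 °C, were pinned with five library-drug doses (not always all listed) spaced by √10. No medium change followed over the next 5 days, after which the cells were fixed, permeabilised and Hoechst-stained together and imaged at 4×. Nuclei were counted with MetaXpress, and viability is treated-well nuclei over vehicle-well nuclei, taken as a median across plates. Plates passed with control CV below 25% and at least one doubling.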

Compound in the next assay: O=c1ncccn1[C@@H]1O[C@H](CO)[C@@H](O)[C@H]1O [Zebularine]
The essentials:
as §1

Compound in the assay “BI-D1870 + Palbociclib”: CC(C)CCN1c2nc(Nc3cc(F)c(O)c(F)c3)ncc2N(C)C(=O)C1C [BI-D1870] + CC(=O)c1c(C)c2cnc(Nc3ccc(N4CCNCC4)cn3)nc2n(C2CCCC2)c1=O [Palbociclib] (partner 0.5 µM)
The essentials:
(§2)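 Relative viability divides the nuclei count in treated wells by that in vehicle wells. Lung cancer cell lines were seeded in 1536-well plates, dosed by pin tool the next day, and fixed and stained after 5 days in one step with final 0.05% Triton X-100, 1% formaldehyde and 1 ug/ml Hoechst. Dosing was a single drug or a fixed anchor-drug dose plus five library-drug doses (not always all listed) in √10 steps, and values are medians of duplicate plates imaged at 4×.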

Compound in the assay “BI-D1870 + Tozasertib”: CC(C)CCN1c2nc(Nc3cc(F)c(O)c(F)c3)ncc2N(C)C(=O)C1C [BI-D1870] + Cc1cc(Nc2cc(N3CCN(C)CC3)nc(Sc3ccc(NC(=O)C4CC4)cc3)n2)n[nH]1 [Tozasertib] (partner 0.1 µM)
In short, it runs like this: as §2

Turning to UMC-11, the relative viability with BI-D1870 (0.04 µM) was determined as 0.972; with BI-D1870 (0.1265 µM), 0.949; in the assay with BI-D1870 (0.4 µM) it was 1.04; in the assay with BI-D1870 (1.265 µM) it was 1.02; in the assay with BI-D1870 (4 µM), 0.387; with Zebularine (1 µM) it was 1.1. Also, the relative viability in the assay with Zebularine (3.162 µM) was determined as 0.824; in the assay with Zebularine (10 µM), 0.673; with Zebularine (31.62 µM), 0.653; with Zebularine (100 µM) it was 0.422; with BI-D1870 + Palbociclib (first compound 0.04 µM) it was 0.331; with BI-D1870 + Palbociclib (first compound 0.1265 µM), 0.347. Besides, the relative viability with BI-D1870 + Palbociclib (first compound 0.4 µM) stood at 0.327; with BI-D1870 + Palbociclib (first compound 1.265 µM), 0.309; with BI-D1870 + Palbociclib (first compound 4 µM) it was 0.272; with BI-D1870 + Tozasertib (first compound 0.04 µM), 0.197; with BI-D1870 + Tozasertib (first compound 0.1265 µM), 0.205; with BI-D1870 + Tozasertib (first compound 0.4 µM), 0.195. Moreover, the relative viability in the assay with BI-D1870 + Tozasertib (first compound 1.265 µM) turned out to be 0.191; with BI-D1870 + Tozasertib (first compound 4 µM), 0.188.
